Measured values from EP0571685A1, “Aryloxyheteroarylpropylamines, their preparation and use” (NOVO NORDISK A/S, priority 1992, dated 1993).

Tested on: voltage operated calcium channels (VOC)
Assay: Inhibition of depolarization-induced 45Ca uptake into brain synaptosomes
Type: biochemical
Details: crude synaptosomal preparation (P₂) from male Wistar rat cerebral cortex; depolarization with 145 mM KCl; 15 s uptake; corrected for basal uptake; estimated from dose response curves
Source text: The pharmacological properties of the compounds of the invention can be illustrated by determining their capability to inhibit calcium uptake into brain synaptosomes.
Depolarization of neuronal membranes leads to an opening of socalled "voltage operated calcium channels" (VOC) in the membranes which allows a massive influx of calcium from the extracellular space. A crude synaptosomal preparation (socalled P₂ fraction) contains small vesicles surrounded by neuronal membrane and it is possible in such a preparation to study a depolarization-induced opening of VOC.
A male Wistar rat is decapitated and the cerebral cortex removed and homogenized in 10 ml. of ice-cold 0.32 M sucrose using a glass homogenizer with a teflon pestle. All subsequent steps for isolation of synaptosomes are done at 0-4°C. The homogenate is centrifuged at 1000 x g for 10 min and the resulting supernatant is re-centrifuged at 18000 x g for 20 min. This pellet (P₂) is resuspended in 0.32 M sucrose (5 ml per g of original tissue) with a teflon pestle.
The tubes are pre-incubated for 30 min on ice and then for 6 min at 37°C in a water bath.
The incubation is continued for 15 s.
The amount of radioactivity on the filter disc is determined by liquid scintillation spectrometry.
Test substances are dissolved in 10 ml of 48% ethanol at a concentration of 0.44 mg/ml. Dilution are made in 48% ethanol to give final concentrations of 0.1, 0.3, 1, 3 and 10 µg/ml. Experiments are performed in triplicate. Controls for depolarized and nondepolarized samples are included in the assay and test substances are only tested in depolarized samples.
The test value will be given as IC₅₀ (the concentration (µg/ml) of test substance which inhibit 50% of stimulated uptake of ⁴⁵Ca (uptake in depolarized samples corrected for basal uptake in nondepolarized samples )). The IC₅₀ value is estimated from dose response curves.

SMILES | IC₅₀ (concentration of test substance which inhibit 50% of stimulated uptake of ⁴⁵Ca)
CN(C)CCC(Oc1ccc(Oc2ccccc2)cc1)c1ccc(Br)s1.O=C(O)C(=O)O (stereo not shown) [Compound 21, 3-(5-Bromo-2-thienyl)-N,N-dimethyl-3-(4-phenoxyphenoxy)propanamine, oxalate] | 5.9 µg/mL
FC(F)(F)c1ccc(OC(CCN2CCCCC2)c2ccc(Cl)s2)cc1.O=C(O)C(=O)O (stereo not shown) [Compound 15, 1-(3-(5-chloro-2-thienyl)-3-(4-trifluoromethylphenoxy)propyl)piperidine, oxalate] | 2.4 µg/mL
FC(F)(F)c1ccc(OC(CCN2CCCCC2)c2cccs2)cc1.O=C(O)C(=O)O (stereo not shown) [Compound 24, 1-(3-(2-Thienyl)-3-(4-trifluoromethylphenoxy)propyl)piperidine, oxalate] | 5.8 µg/mL
FC(F)(F)c1ccccc1OC(CCN1CCCCC1)c1ccc(Cl)s1.O=C(O)C(=O)O (stereo not shown) [Compound 17, 1-(3-(5-chloro-2-thienyl)-3-(2-trifluoromethylphenoxy)propyl)piperidine, oxalate] | 3.0 µg/mL
CCCCNCCC(Oc1ccc(C(F)(F)F)cc1)c1cc(C)sc1C.O=C(O)C(=O)O (stereo not shown) [Compound 4, N-butyl-3-(2,5-dimethyl-3-thienyl)-3-(4-trifluoromethylphenoxy)propanamine, oxalate] | 3.8 µg/mL
CN(C)CCC(Oc1ccc(C(F)(F)F)cc1)c1cccs1.O=C(O)C(=O)O (stereo not shown) [Compound 23, N,N-dimethyl-3-(2-thienyl)-3-(4-trifluoromethylphenoxy)propanamine, oxalate] | 8.6 µg/mL
CN(C)CCC(Oc1ccc(C(F)(F)F)cc1)c1ccsc1.Cl (stereo not shown) [Compound 27, N,N-dimethyl-3-(3-thienyl)-3-(4-trifluoromethylphenoxy)propanamine, hydrochloride] | 13 µg/mL
FC(F)(F)c1cccc(OC(CCN2CCCCC2)c2ccc(Cl)s2)c1.O=C(O)C(=O)O (stereo not shown) [Compound 18, 1-(3-(5-chloro-2-thienyl)-3-(3-trifluoromethylphenoxy)propyl)piperidine, oxalate] | 7.3 µg/mL
CN(C)CCC(Oc1ccc(-c2ccccc2)cc1)c1ccc(Br)s1.O=C(O)C(=O)O (stereo not shown) [Compound 22, 3-(5-Bromo-2-thienyl)-N,N-dimethyl-3-(4-phenylphenoxy)propanamine, oxalate] | 4.4 µg/mL
N#Cc1cccc(OC(CCN2CCCCC2)c2ccc(Cl)s2)c1.O=C(O)C(=O)O (stereo not shown) [Compound 16, 1-(3-(5-chloro-2-thienyl)-3-(3-cyanophenoxy)propyl)piperidine, oxalate] | 12.0 µg/mL
CSc1ccc(OC(CCN(C)C)c2ccc(Br)s2)cc1.O=C(O)C(=O)O (stereo not shown) [Compound 19, 3-(5-Bromo-2-thienyl)-N,N-dimethyl-3-(4-(methylthio)phenoxy)propanamine, oxalate] | 4.4 µg/mL
Cc1coc(C)c1C(CCN(C)C)Oc1ccc(C(F)(F)F)cc1.O=C(O)C(=O)O (stereo not shown) [Compound 11, N,N-Dimethyl-3-(2,4-dimethyl-3-furyl)-3-(4-trifluoromethylphenoxy)propaneamine, oxalate] | 10.3 µg/mL
CCCCNCCC(Oc1ccc(C#N)cc1)c1cc(C)sc1C.O=C(O)C(=O)O (stereo not shown) [Compound 3, N-butyl-3-(4-cyanophenoxy)-3-(2,5-dimethyl-3-thienyl)propanamine, oxalate] | 6.6 µg/mL
